Patent US8153787B2 (priority 2005, dated 2012)
≈ marks a conversion by molar mass, not a printed value. Where two headings read alike, the source gives them in different places.

Experiments:
Orf virus (NZ2) = test: microbe, parasite or virus in culture; type: cell-based
murine polyomavirus = test: microbe, parasite or virus in culture; type: cell-based; conditions: Alphapolyomavirus muris, UC1, UC1B
HSB-2 cells = conditions: human
HSV-2 (Lyons) = system: HSV-2 (Lyons); design: species or system mice; conditions: mouse, in vivo, sc
MOLT-3 cells = conditions: human
[1] = system: Herpes simplex virus-2 (G); type: cell-based
[2] = system: Vaccinia virus (Western Reserve) and recombinant viruses harboring the A314T, A684V or A314T+A684V mutations; type: cell-based
SiHa cells (HPV-16) = test: Human cervical carcinoma (SiHa) xenografts in athymic nude mice; type: in vivo; conditions: 5 weeks intratumoral treatment
Experimental: (§1) Adult animals were injected subcutaneously with 5×10^6 SiHa cells, a human cervical carcinoma cell line which harbors integrated human papillomavirus (HPV-16). Once the tumors were established (approximately after 1 week), the mice were divided in several groups, the tumor size for each mouse was determined, and treatment with placebo (PBS) or the test compounds was started. The test solutions were administered intratumorally at a volume of 50 μl. Mice were treated once a day, 5 times a week for a period of 5 weeks. Every week, the tumor size for each animal was measured with a caliper in two perpendicular dimensions and tumor size was calculated by multiplying the two measured diameters.
as §1, with “s.c.” for “subcutaneously”, “intratumorally (i.t.)” for “intratumorally”

[3] = system: Human Cytomegalovirus (HCMV); test: microbe, parasite or virus in culture; type: cell-based
pox tail lesions = test: Pox tail lesion model; type: in vivo
[4] = system: Molluscum contagiosum virus (MCV) clinical isolates; test: microbe, parasite or virus in culture; type: cell-based; conditions: Keratinocyte
[5] = system: herpes simplex virus type 1 (HSV-1); test: microbe, parasite or virus in culture; type: cell-based; conditions: Human alphaherpesvirus 1, HEL, read-out: EC50 HSV-1 (Kos strain)
Cowpox virus (Brighton) [6] = type: cell-based
[7] = system: herpes simplex virus type 2 (HSV-2); test: microbe, parasite or virus in culture; type: cell-based; conditions: Human alphaherpesvirus 2, HEL, read-out: EC50 HSV-2 (G strain)
HSV-1 (Kos strain) = test: microbe, parasite or virus in culture; type: cell-based, Herpes simplex virus type 1; conditions: Human alphaherpesvirus 1, HEL
in vitro [8] = conditions: mouse
[9] = mouse, in vivo
HSV-1 (KOS) = system: HSV-1 (KOS); design: species or system mice; conditions: mouse, in vivo, sc
in vitro [10] = conditions: human
[11] = Decomposition in aqueous solution (sym-triazine ring opening); type: physicochemical; conditions: in words
Description: The first step is a reversible opening of the sym-triazine ring to the N-formylguanidine derivative which can close back to the cyclic structure. This step occurs in presence of a trialkylammonium buffer, e.g. triethylammonium hydrogenocarbonate (TEAB), triethylammonium hydroxide or triethylammonium acetate. This hydrolytic reaction is slow and reaches equilibrium within several days. It is accompanied by loss of UV-absorption which allows to determine its course.
Though this reaction is generally controlled by acidobasic catalysis, it could be eventually speeded up (or slowed down) in vivo by the action of enzymes.
The reaction course was monitored by measurement of absorption maximum decrease in UV spectrum at λmax 245 nm. For each measurement 10 μl sample of reaction mixture was diluted with water to overall volume 3 ml and absorbance value at 245 nm determined. Equilibrium was reached when no more decrease of absorbance occurred. The reaction mixture was evaporated to dryness, coevaporated with water (5×3 ml) and then with methanol (2×3 ml). The residue in water (3 ml) was applied onto a column of Dowex 50 (Na^+ form, 20 ml) and the column eluted with water. UV absorbing eluate was evaporated and lyophilized to give 105 mg (92%) of a sodium salt of 3a as a colourless amorphous material.

[12] = system: primate polyomavirus (SV40); test: microbe, parasite or virus in culture; type: cell-based, simian polyomavirus SV40; conditions: Polyomavirus sp., BSC-1, in Primates
[13] = system: vaccinia virus (Lederle strain); test: microbe, parasite or virus in culture; type: cell-based; conditions: Orthopoxvirus vaccinia, HEL
Cowpox virus (Brighton) [14] = test: microbe, parasite or virus in culture; type: cell-based
Vaccinia virus = type: cell-based
[15] = system: Vaccinia virus (Lederle, Lister, W R and Copenhagen); type: cell-based

Nc1ncn(C[C@@H](CO)OCP(=O)(O)O)c(=O)n1 [Compound 3, (S)-1-[3-hydroxy-2-(Phosphonomethoxy)propyl]-5-azacytosine]
activity against Orf virus (NZ2) in HEL cells (Orf virus (NZ2)): significant activity
EC50 (Orf virus (NZ2); Orf virus, HEL, read-out: EC50 Orf virus NZ2): 0.15 µg/mL (≈ 0.535 µM)
EC50 (murine polyomavirus; read-out: antiviral activity (EC50) 2PTA2): 3.35 µg/mL (≈ 12 µM)
EC50 (murine polyomavirus; read-out: antiviral activity (EC50) LID-1): 4.98 µg/mL (≈ 17.8 µM)
EC50 (murine polyomavirus; read-out: antiviral activity (EC50) MN/RDE Toronto): 1.94 µg/mL (≈ 6.92 µM)
EC50 (murine polyomavirus; read-out: antiviral activity (EC50) PTA): 3.89 µg/mL (≈ 13.9 µM)
Toxicity MCC (microscopy), HSB-2 cells (HSB-2 cells): 16 µg/mL
survival rate, HSV-2 (Lyons) model (HSV-2 (Lyons)): 100%
Toxicity MCC (microscopy), MOLT-3 cells (MOLT-3 cells): 16 µg/mL
activity against Herpes simplex virus-2 (G) in E6SM cell cultures [1]: significant activity
EC50 Vaccinia virus (Western Reserve) wild-type [2]: 1.58 µg/mL (≈ 5.64 µM)
EC50 recombinant vaccinia virus 314 + 684 [2]: 10.8 µg/mL
EC50 recombinant vaccinia virus 684 [2]: 6.88 µg/mL
EC50 recombinant vaccinia virus A314T [2]: 4.1 µg/mL
tumor size, SiHa xenografts (SiHa cells (HPV-16)): did not increase
activity against CMV (AD-169 and Davis) in HEL cells [3]: significant activity
EC50 ([3]; Human betaherpesvirus 5, AD169, HEL, read-out: EC50 HCMV AD-169 strain (HEL cells)): 0.078 µg/mL (≈ 0.278 µM)
EC50 ([3]; Human betaherpesvirus 5, HEL, read-out: EC50 HCMV Davis strain (HEL cells)): 0.054 µg/mL (≈ 0.193 µM)
number of lesions on day 7 (pox tail lesions): 0
EC50 ([4]; read-out: EC50 MCV 06/02): 0.4 µg/mL (≈ 1.43 µM)
EC50 ([4]; read-out: EC50 MCV 06/03): 0.23 µg/mL (≈ 0.821 µM)
EC50 ([4]; read-out: EC50 MCV 06/04): 0.4 µg/mL (≈ 1.43 µM)
EC50 ([4]; read-out: EC50 MCV 06/06): 1.26 µg/mL (≈ 4.5 µM)
EC50 [5]: 0.61 µg/mL (≈ 2.18 µM)
activity against Cowpox virus (Brighton) in PHKs (Cowpox virus (Brighton) [6]): significant activity
EC50 [7]: 0.54 µg/mL (≈ 1.93 µM)
EC50 (HSV-1 (Kos strain); 2 h, read-out: EC50 HSV-1 (Kos strain), Treatment from 2 h till end of experiment): 0.16 µg/mL (≈ 0.571 µM)
EC50 (HSV-1 (Kos strain); read-out: EC50 HSV-1 (Kos strain), Pretreatment (−16 hours)): 0.25 µg/mL (≈ 0.892 µM)
EC50 (HSV-1 (Kos strain); read-out: EC50 HSV-1 (Kos strain), Treatment 2-4 hours): 1 µg/mL (≈ 3.57 µM)
EC50 (HSV-1 (Kos strain); read-out: EC50 HSV-1 (Kos strain), Treatment 2-6 hours): 0.37 µg/mL (≈ 1.32 µM)
EC50 (HSV-1 (Kos strain); read-out: EC50 HSV-1 (Kos strain), Treatment 2-8 hours): 0.32 µg/mL (≈ 1.14 µM)
CC50 (in vitro [8]): 109 µg/mL (≈ 391 µM)
mean body weights of the mice [9]: normal pattern
survival rate, HSV-1 (KOS) mice (HSV-1 (KOS)): 100%
CC50 (in vitro [10]): > 100 µg/mL
decomposition in aqueous solution [11]: slow decomposition
EC50 ([12]; read-out: antiviral activity (EC50) SV40 PML-1 strain EK): 3.19 µg/mL (≈ 11.4 µM)
EC50 ([12]; read-out: antiviral activity (EC50) SV40 PML-2 strain DAR): 3.81 µg/mL (≈ 13.6 µM)
EC50 ([12]; read-out: antiviral activity (EC50) SV40 strain A2895): 3.22 µg/mL (≈ 11.5 µM)
EC50 ([13]; 2 h, read-out: EC50 Vaccinia (Lederle strain), Treatment from 2 h till end of experiment): 2 µg/mL (≈ 7.14 µM)
EC50 ([13]; read-out: EC50 Vaccinia (Lederle strain), Pretreatment (−16 hours)): 1.59 µg/mL (≈ 5.67 µM)
EC50 ([13]; read-out: EC50 Vaccinia (Lederle strain), Treatment 2-4 hours): 5 µg/mL (≈ 17.8 µM)
EC50 ([13]; read-out: EC50 Vaccinia (Lederle strain), Treatment 2-6 hours): 3.98 µg/mL (≈ 14.2 µM)
EC50 ([13]; read-out: EC50 Vaccinia (Lederle strain), Treatment 2-8 hours): 6.3 µg/mL (≈ 22.5 µM)
activity against Cowpox virus (Brighton) in HEL cells (Cowpox virus (Brighton) [14]): significant activity
EC50 (Cowpox virus (Brighton) [14]; Cowpox virus, HEL, read-out: EC50 Cowpox virus Brighton): 4.72 µg/mL (≈ 16.8 µM)
activity against Vaccinia virus in E6SM cell cultures (Vaccinia virus): significant activity
activity against Vaccinia virus (Lederle, Lister, W R and Copenhagen) in PHKs [15]: significant activity
